Test results from paper PMC12494831, “Discovery of new pyridine 3-carboxylic acid-based pharmacophores as dual anti-inflammatory and anti-hyperglycemic agents” (Scientific Reports, 2025).
Blank lines part the entries; values can stand above or below the compound they belong to.

Assays:
α-amylase (EC.3.2.1.1) = molecular target: T1, α-amylase (EC.3.2.1.1) (Homo sapiens, UniProt P04746); experiment: In vitro α-amylase inhibition (starch/DNS, 540 nm); assay type: biochemical
T1 sequence (P04746 16-511): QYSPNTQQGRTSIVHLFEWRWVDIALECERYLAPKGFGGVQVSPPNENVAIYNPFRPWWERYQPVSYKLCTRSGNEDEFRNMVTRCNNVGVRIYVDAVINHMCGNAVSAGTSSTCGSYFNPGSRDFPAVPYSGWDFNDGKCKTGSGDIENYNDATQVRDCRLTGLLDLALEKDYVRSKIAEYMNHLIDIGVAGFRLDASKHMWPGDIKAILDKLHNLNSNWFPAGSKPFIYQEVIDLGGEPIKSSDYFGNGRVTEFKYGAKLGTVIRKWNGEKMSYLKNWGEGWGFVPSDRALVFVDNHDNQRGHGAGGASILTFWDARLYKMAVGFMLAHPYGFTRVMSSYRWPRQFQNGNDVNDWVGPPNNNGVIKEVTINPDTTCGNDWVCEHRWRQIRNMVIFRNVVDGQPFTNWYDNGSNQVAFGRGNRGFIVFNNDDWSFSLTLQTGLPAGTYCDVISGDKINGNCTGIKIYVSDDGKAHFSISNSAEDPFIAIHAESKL
Description: α-Amylase enzyme and other chemical reagents are used for enzyme inhibitory activity. The characterized compounds are diluted in an analytical grad solvent (DMSO) system at 1 mg/mL solution concentration. The activity reaction of the synthesized analogues on the enzyme was treated at final concentrations of 2 to 10 µg. In the interaction between enzyme and compounds, 10 min incubation was maintained before the inhibitory activity started. The enzyme-receptor inhibition efficiency was calculated and compared with the positive control.
Sodium phosphate buffer 0.2 mM (pH 6.9 with 6 × 10^− 4 M NaCl) in 500 µL enzyme solution (0.5 mg/mL) was taken and incubated with test samples (2–10 µg/mL) at room temperature for 10 min. A starch (1%) solution of 500 µL with phosphate buffer was added to all test inhibitor samples; further, the tubes were incubated for 10 min at 28 °C. The reaction test tubes were incubated for another 5 min in the water bath (100 °C) after the addition of the color reagent dinitro salicylic acid and cooled at room temperature until reached. Finally, 10 mL of distilled water was mixed with each test tube, and the colored mixture was measured at a fixed wavelength of 540 nm. The absorbance without sample solution (blank) and control (buffer and standard drug sample) was measured at 540 nm. The α-amylase inhibition efficiency was validated using the following equation:2 [drawing 2]

[1] = DPPH radical scavenging (517 nm); conditions: for IC50: read-out: DPPH IC50±SD
Description: (§1) The experimental method principle relies on the degradation of the purple color of the DPPH radical and the blue color reduction of the ABTS cation radical. This is due to consuming the electron or hydrogen radical from the antioxidant (A-H). Both assays were measured at 517 nm and 734 nm, respectively. The distinction of color changes illustrates the potential scavenging activity of the inhibitor molecules in terms of hydrogen-donating proficiency. From this, we can conclude the anti-oxidant efficacy.
Methanolic DPPH solution (0.15 mM) was prepared, and 1.0 mL of DPPH solution was mixed with 3.0 mL of synthesized molecules at different concentrations (20 µM to 100 µM). The mixture was constantly swirled and stored RT for 30 min, followed by absorbance measurement at 517 nm.

[2] = ABTS cation radical scavenging (734 nm); conditions: for IC50: read-out: ABTS IC50±SD
Description: as §1
In brief, 7.0 mM ABTS in H2O and 2.5 mM potassium persulfate (1:1) were shaken well to generate ABTS cation radicals and kept in the dark at RT for 15–20 h before it is used for the experiment. After, the radical was mixed with the synthesized molecules at different concentrations (20 µM to 100 µM). The resultant solution was measured for absorbance at 734 nm. Ascorbic acid is the positive control for this experiment.1 [drawing 1]

human RBC = experiment: Anti-inflammatory activity: hypotonic solution-induced human RBC hemolysis (560 nm); assay type: cell-based; conditions: for IC50: induced human RBC hemolysis, read-out: Inflammatory IC50±SD
Description: All synthesized compounds are validated in human RBC (blood sample); the blood sample was collected from a healthy volunteer in an EDTA tube. The EDTA tube further proceeded with centrifugation at 3000 rpm for 30 min. A supernatant (which contains plasma and leucocytes) solution was isolated, and the obtained RBC (red blood cells) was further treated with Alsever’s reagent. Alsever’s reagent was prepared as follows: sodium citrate (0.8 g, 2.6 mmol), dextrose (2 g, 11.0 mmol), citric acid (0.050 g, […]), and sodium chloride (0.42 g, 7.0 mmol) were solubilized in 100 mL of distilled water. The above mixture was centrifuged for 30 min at 3000 rpm. Then, colloidal blood cells were separated, carefully transferred, and washed with 0.85% of the isosaline solution; this process continued until a clear solution appeared. Employing coagulated RBC and generated human erythrocyte hemolysis, the anti-inflammatory activity and potential of the synthesized entities were evaluated. The tested compounds are prepared at different concentrations for the inhibition activity of inflammation, along with 100 µL of a purified RBC sample utilized. All characterized samples were followed by adding 5.0 mL of trisodium phosphate (10 mM) and 5.0 mL of sodium chloride (5.0 mM) buffer solutions. After the addition of the above mixtures, the test samples are incubated for 15 min at room temperature with RBC and hypotonic mixtures. After incubation, the mixture was centrifuged at 3000 rpm for 15 min. The final supernatant liquid solution was measured at 560 nm using a UV-visible spectrophotometer.3 [drawing 3]

MTT cell viability assay = assay type: cell-based; conditions: mouse, RAW 264.7 macrophage cells, control 100
Description: (§2) The toxicity of the molecule was investigated by the MTT cell viability assay employing RAW macrophage cells. For this study, two lead compounds, 2b and 2e, were screened based on the in vitro results. […] (The OD values in Tables S6 and S7)
(§3) The MTT ((3-(4,5-Dimethylthiazol-2-yl)-2,5-Diphenyltetrazolium Bromide)) assay was employed to determine viability for the synthesized potent compounds 2b and 2e; the cell viability results portray the compounds’ cytotoxicity. The assay was conducted on RAW macrophage cells (RAW 264.7) with various dilutions of 2b and 2e (10, 20, 30, 40, and 50 µM). The results were confirmed with a control.

[3] = system: RAW macrophage cells (RAW 264.7); experiment: MTT cell viability assay; assay type: cell-based; conditions: for MTT assay Average OD: control average OD 0.924
Description: as §2, §3

- α-Amylase Inhibition % (α-amylase (EC.3.2.1.1); 2 µg): 80.52%
- α-Amylase Inhibition % (α-amylase (EC.3.2.1.1); 4 µg): 80.38%
- α-Amylase Inhibition % (α-amylase (EC.3.2.1.1); 6 µg): 77.01%
- α-Amylase Inhibition % (α-amylase (EC.3.2.1.1); 8 µg): 69.1%
- α-Amylase Inhibition % (α-amylase (EC.3.2.1.1); 10 µg): 54.9%
- IC50 (α-amylase (EC.3.2.1.1); test concentrations 2-10 µg, read-out: α-Amylase IC50±SD (converted)): 4.37 µM
- IC50 [1]: 15.63 ± 0.13 µM
- IC50 [2]: 19.9 ± 0.25 µM
Structure (SMILES): COC(=O)/C=C/c1ccc(OC(=O)c2cccnc2)c(OC)c1 [Compound 2b, 2-Methoxy-4-(3-methoxy-3-oxoprop-1-en-1-yl) phenyl nicotinate]
- DPPH Inhibition % ([1]; 20 µM): 66.2%
- DPPH Inhibition % ([1]; 40 µM): 86.32%
- DPPH Inhibition % ([1]; 60 µM): 87.6%
- DPPH Inhibition % ([1]; 80 µM): 88%
- DPPH Inhibition % ([1]; 100 µM): 88.4%
- ABTS Inhibition % ([2]; 20 µM): 59.6%
- ABTS Inhibition % ([2]; 40 µM): 60.8%
- ABTS Inhibition % ([2]; 60 µM): 60.9%
- ABTS Inhibition % ([2]; 80 µM): 61%
- ABTS Inhibition % ([2]; 100 µM): 61.4%
- inhibition at 20 µM (human RBC): 60%
- inhibition at 40 µM (human RBC): 69.9%
- inhibition at 60 µM (human RBC): 71%
- inhibition at 80 µM (human RBC): 76%
- inhibition at 100 µM (human RBC): 85.8%
- IC50 (human RBC): 18.41 ± 0.13 µM
- viability at 10 µM (MTT cell viability assay; 10 µM): 85.4%
- viability at 20 µM (MTT cell viability assay; 20 µM): 77.4%
- viability at 30 µM (MTT cell viability assay; 30 µM): 68.5%
- viability at 40 µM (MTT cell viability assay; 40 µM): 58.8%
- viability at 50 µM (MTT cell viability assay; 50 µM): 45.3%
- MTT assay Triplicate values OD1 ([3]; 10 µM): 0.790
- MTT assay Triplicate values OD2 ([3]; 10 µM): 0.792
- MTT assay Triplicate values OD3 ([3]; 10 µM): 0.785
- MTT assay Average OD ([3]; 10 µM): 0.789
- MTT assay Triplicate values OD1 ([3]; 20 µM): 0.719
- MTT assay Triplicate values OD2 ([3]; 20 µM): 0.712
- MTT assay Triplicate values OD3 ([3]; 20 µM): 0.711
- MTT assay Average OD ([3]; 20 µM): 0.714
- MTT assay Triplicate values OD1 ([3]; 30 µM): 0.634
- MTT assay Triplicate values OD2 ([3]; 30 µM): 0.629
- MTT assay Triplicate values OD3 ([3]; 30 µM): 0.636
- MTT assay Average OD ([3]; 30 µM): 0.633
- MTT assay Triplicate values OD1 ([3]; 40 µM): 0.542
- MTT assay Triplicate values OD2 ([3]; 40 µM): 0.541
- MTT assay Triplicate values OD3 ([3]; 40 µM): 0.546
- MTT assay Average OD ([3]; 40 µM): 0.543
- MTT assay Triplicate values OD1 ([3]; 50 µM): 0.418
- MTT assay Triplicate values OD2 ([3]; 50 µM): 0.416
- MTT assay Triplicate values OD3 ([3]; 50 µM): 0.423
- MTT assay Average OD ([3]; 50 µM): 0.419
- Toxicity, outcome of the MTT cell viability assay (in words) ([3]; RAW macrophage cells): viable for the cell line

- IC50 [1]: 93.69 ± 0.26 µM
- IC50 [2]: 20.57 ± 0.13 µM
Structure (SMILES): COC(=O)/C=C/c1ccc(OC)c(OC(=O)c2cccnc2)c1 [Compound 2c, 2-Methoxy-5-(3-methoxy-3-oxoprop-1-en-1-yl) phenyl nicotinate]
- DPPH Inhibition % ([1]; 20 µM): 32%
- DPPH Inhibition % ([1]; 40 µM): 34.9%
- DPPH Inhibition % ([1]; 60 µM): 36.1%
- DPPH Inhibition % ([1]; 80 µM): 48%
- DPPH Inhibition % ([1]; 100 µM): 51.9%
- ABTS Inhibition % ([2]; 20 µM): 58%
- ABTS Inhibition % ([2]; 40 µM): 59.7%
- ABTS Inhibition % ([2]; 60 µM): 59.8%
- ABTS Inhibition % ([2]; 80 µM): 60%
- ABTS Inhibition % ([2]; 100 µM): 60%
- inhibition at 20 µM (human RBC): 48%
- inhibition at 40 µM (human RBC): 52.9%
- inhibition at 60 µM (human RBC): 62.5%
- inhibition at 80 µM (human RBC): 77%
- inhibition at 100 µM (human RBC): 86%
- IC50 (human RBC): 27.65 ± 0.2 µM
- MTT assay Triplicate values OD1 ([3]; 10 µM): 0.824
- MTT assay Triplicate values OD2 ([3]; 10 µM): 0.826
- MTT assay Triplicate values OD3 ([3]; 10 µM): 0.819
- MTT assay Average OD ([3]; 10 µM): 0.823
- MTT assay Triplicate values OD1 ([3]; 20 µM): 0.754
- MTT assay Triplicate values OD2 ([3]; 20 µM): 0.753
- MTT assay Triplicate values OD3 ([3]; 20 µM): 0.758
- MTT assay Average OD ([3]; 20 µM): 0.755
- MTT assay Triplicate values OD1 ([3]; 30 µM): 0.689
- MTT assay Triplicate values OD2 ([3]; 30 µM): 0.695
- MTT assay Triplicate values OD3 ([3]; 30 µM): 0.692
- MTT assay Average OD ([3]; 30 µM): 0.692
- MTT assay Triplicate values OD1 ([3]; 40 µM): 0.596
- MTT assay Triplicate values OD2 ([3]; 40 µM): 0.604
- MTT assay Triplicate values OD3 ([3]; 40 µM): 0.606
- MTT assay Average OD ([3]; 40 µM): 0.602
- MTT assay Triplicate values OD1 ([3]; 50 µM): 0.520
- MTT assay Triplicate values OD2 ([3]; 50 µM): 0.525
- MTT assay Triplicate values OD3 ([3]; 50 µM): 0.518
- MTT assay Average OD ([3]; 50 µM): 0.521
